Columns and labels:
Assay in all cases: DSF selectivity screening
Format in all cases: binding
Details in all cases: 10 μM compound
AAK1A = AAK1A (Homo sapiens, UniProt Q2M2I8)
Description: (§1) The assay was performed as previously described.[29],[35] Briefly, recombinant protein kinase domains at a concentration of 2 μM were mixed with a 10 μM compound in a buffer containing 20 mM HEPES, pH 7.5, and 500 mM NaCl. SYPRO Orange (5000×, Invitrogen) was added as a fluorescence probe (1 μL per mL). Subsequently, temperature-dependent protein unfolding profiles were measured using a QuantStudio 5 real-time PCR machine (Thermo Fisher). Excitation and emission filters were set to 465 and 590 nm, respectively. The temperature was raised with a step rate of 3 °C per minute. Data points were analyzed with internal software (Thermal Shift Software version 1.4, Thermo Fisher) using the Boltzmann equation to determine the inflection point of the transition curve (Table S4).

ABL1A = ABL1A (Homo sapiens, UniProt P00519)
Description: as §1

AURKBA = AURKBA (Homo sapiens, UniProt Q96GD4)
Description: as §1

BMP2KA = BMP2KA (Homo sapiens, UniProt Q9NSY1)
Description: as §1

BRAFA = BRAFA (Homo sapiens, UniProt P15056)
Description: as §1

CAMK1DA = CAMK1DA (Homo sapiens, UniProt Q8IU85)
Description: as §1

CAMK2BA = CAMK2BA (Homo sapiens, UniProt Q13554)
Description: as §1

CSNK1DA = CSNK1DA (Homo sapiens, UniProt P48730)
Description: as §1

DAPK1A = DAPK1A (Homo sapiens, UniProt P53355)
Description: as §1

EPHA2A = EPHA2A (Homo sapiens, UniProt P29317)
Description: as §1

EPHA4A = EPHA4A (Homo sapiens, UniProt P54764)
Description: as §1

EPHA7A = EPHA7A (Homo sapiens, UniProt Q15375)
Description: as §1

FECH = FECH (Homo sapiens, UniProt P22830)
Description: as §1

FGFR3A = FGFR3A (Homo sapiens, UniProt P22607)
Description: as §1

GSK3BB = GSK3BB (Homo sapiens, UniProt P49841)
Description: as §1

MAP3K5A = MAP3K5A (Homo sapiens, UniProt Q99683)
Description: as §1

MAPK10A = MAPK10A (Homo sapiens, UniProt P53779)
Description: as §1

MAPK13A = MAPK13A (Homo sapiens, UniProt O15264)
Description: as §1

MAPK14A = MAPK14A (Homo sapiens, UniProt Q16539)
Description: as §1

MAPK1A = MAPK1A (Homo sapiens, UniProt P28482)
Description: as §1

MERTKA = MERTKA (Homo sapiens, UniProt Q12866)
Description: as §1

MST3A = MST3A (Homo sapiens, UniProt Q9Y6E0)
Description: as §1

NEK2 = NEK2 (Homo sapiens, UniProt P51955)
Description: as §1

NEK7A = NEK7A (Homo sapiens, UniProt Q8TDX7)
Description: as §1

NQO2A = NQO2A (Homo sapiens, UniProt P16083)
Description: as §1

OSR1A = OSR1A (Homo sapiens, UniProt O95747)
Description: as §1

PCTK1A = PCTK1A (Homo sapiens, UniProt Q00536)
Description: as §1

PHKG2A = PHKG2A (Homo sapiens, UniProt P15735)
Description: as §1

PKMYT1A = PKMYT1A (Homo sapiens, UniProt Q99640)
Description: as §1

RPS6KA5A = test system: RPS6KA5A
Description: as §1

SRCA = SRCA (Homo sapiens, UniProt P12931)
Description: as §1

STK10A = STK10A (Homo sapiens, UniProt O94804)
Description: as §1

STK3A = STK3A (Homo sapiens, UniProt Q13188)
Description: as §1

STK4A = STK4A (Homo sapiens, UniProt Q13043)
Description: as §1

STK6A = STK6A (Homo sapiens, UniProt O14965)
Description: as §1

TIF1A = TIF1A (Homo sapiens, UniProt O15164)
Description: as §1

TLK1A = TLK1A (Homo sapiens, UniProt Q9UKI8)
Description: as §1

TTKA = TTKA (Homo sapiens, UniProt P33981)
Description: as §1

ULK1A = ULK1A (Homo sapiens, UniProt O75385)
Description: as §1

VRK1A = VRK1A (Homo sapiens, UniProt Q99986)
Description: as §1

WNK1A = WNK1A (Homo sapiens, UniProt Q9H4A3)
Description: as §1

Chain of MAPK13A (O15264 whole entry): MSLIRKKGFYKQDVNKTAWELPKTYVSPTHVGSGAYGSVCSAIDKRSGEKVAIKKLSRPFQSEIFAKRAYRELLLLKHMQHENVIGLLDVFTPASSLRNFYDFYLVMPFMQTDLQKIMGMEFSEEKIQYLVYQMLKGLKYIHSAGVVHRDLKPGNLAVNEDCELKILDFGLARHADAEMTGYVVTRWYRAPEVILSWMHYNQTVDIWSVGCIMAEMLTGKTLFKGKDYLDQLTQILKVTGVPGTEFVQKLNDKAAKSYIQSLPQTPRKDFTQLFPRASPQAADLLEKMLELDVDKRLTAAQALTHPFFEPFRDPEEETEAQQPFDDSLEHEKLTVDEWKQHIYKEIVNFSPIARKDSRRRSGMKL
Chain of MAPK1A (P28482 whole entry): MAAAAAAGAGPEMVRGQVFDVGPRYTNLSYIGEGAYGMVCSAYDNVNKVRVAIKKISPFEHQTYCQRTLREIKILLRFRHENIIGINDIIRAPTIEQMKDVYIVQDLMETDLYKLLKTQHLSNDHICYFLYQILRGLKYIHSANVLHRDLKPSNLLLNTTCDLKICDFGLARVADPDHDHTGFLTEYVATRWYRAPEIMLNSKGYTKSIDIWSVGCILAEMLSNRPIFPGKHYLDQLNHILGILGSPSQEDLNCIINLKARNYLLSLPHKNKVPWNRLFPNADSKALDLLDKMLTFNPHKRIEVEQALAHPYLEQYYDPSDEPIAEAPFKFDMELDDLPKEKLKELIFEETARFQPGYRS
Chain of EPHA2A (P29317 596-900): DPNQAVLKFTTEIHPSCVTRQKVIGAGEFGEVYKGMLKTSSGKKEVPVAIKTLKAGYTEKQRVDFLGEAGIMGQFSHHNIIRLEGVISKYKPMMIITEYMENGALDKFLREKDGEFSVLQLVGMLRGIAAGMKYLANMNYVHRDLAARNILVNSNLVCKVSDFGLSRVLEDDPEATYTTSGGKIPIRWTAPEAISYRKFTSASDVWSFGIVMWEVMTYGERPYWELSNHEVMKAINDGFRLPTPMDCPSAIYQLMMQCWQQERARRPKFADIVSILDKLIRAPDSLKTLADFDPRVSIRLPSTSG
Chain of BMP2KA (Q9NSY1 38-345): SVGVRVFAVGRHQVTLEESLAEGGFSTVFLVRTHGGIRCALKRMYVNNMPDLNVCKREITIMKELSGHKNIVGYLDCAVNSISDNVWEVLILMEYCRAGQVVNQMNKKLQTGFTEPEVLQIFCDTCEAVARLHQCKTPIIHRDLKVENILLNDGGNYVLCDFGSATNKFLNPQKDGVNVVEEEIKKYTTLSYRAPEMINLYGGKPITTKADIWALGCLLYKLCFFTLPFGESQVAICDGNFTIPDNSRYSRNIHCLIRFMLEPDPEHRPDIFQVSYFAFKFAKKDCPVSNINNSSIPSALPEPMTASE
Chain of BRAFA (P15056 448-723): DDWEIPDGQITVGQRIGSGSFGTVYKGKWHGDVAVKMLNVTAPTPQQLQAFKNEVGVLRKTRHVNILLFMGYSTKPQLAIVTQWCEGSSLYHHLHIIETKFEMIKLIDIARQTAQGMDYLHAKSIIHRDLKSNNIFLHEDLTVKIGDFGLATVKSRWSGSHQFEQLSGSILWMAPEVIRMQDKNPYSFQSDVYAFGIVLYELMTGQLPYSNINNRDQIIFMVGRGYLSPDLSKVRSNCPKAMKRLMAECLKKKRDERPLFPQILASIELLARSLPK
Chain of STK10A (O94804 18-317): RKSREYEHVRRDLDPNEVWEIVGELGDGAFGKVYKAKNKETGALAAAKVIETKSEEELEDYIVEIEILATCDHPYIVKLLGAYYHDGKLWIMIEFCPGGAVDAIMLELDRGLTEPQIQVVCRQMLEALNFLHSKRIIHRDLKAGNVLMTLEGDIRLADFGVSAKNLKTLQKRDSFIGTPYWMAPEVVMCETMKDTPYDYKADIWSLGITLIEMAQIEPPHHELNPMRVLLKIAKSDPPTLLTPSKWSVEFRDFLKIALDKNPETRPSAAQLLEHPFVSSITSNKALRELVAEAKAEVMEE
Chain of EPHA4A (P54764 621-882): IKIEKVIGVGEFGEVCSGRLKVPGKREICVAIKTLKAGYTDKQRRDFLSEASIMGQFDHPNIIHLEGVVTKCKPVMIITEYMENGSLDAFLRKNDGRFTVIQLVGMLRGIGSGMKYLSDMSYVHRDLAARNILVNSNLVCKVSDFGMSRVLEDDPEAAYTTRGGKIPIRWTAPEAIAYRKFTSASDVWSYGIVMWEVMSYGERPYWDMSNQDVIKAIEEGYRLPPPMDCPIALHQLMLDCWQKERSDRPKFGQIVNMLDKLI
Chain of MST3A (Q9Y6E0 27-315): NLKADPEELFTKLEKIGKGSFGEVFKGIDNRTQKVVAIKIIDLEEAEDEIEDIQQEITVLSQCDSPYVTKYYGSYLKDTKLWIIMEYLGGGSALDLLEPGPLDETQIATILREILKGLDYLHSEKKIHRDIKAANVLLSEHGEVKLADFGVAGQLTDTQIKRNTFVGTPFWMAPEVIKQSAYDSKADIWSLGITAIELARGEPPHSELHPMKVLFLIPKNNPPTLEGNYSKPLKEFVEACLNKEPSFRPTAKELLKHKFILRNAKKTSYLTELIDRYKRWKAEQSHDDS
Chain of TLK1A (Q9UKI8 456-734): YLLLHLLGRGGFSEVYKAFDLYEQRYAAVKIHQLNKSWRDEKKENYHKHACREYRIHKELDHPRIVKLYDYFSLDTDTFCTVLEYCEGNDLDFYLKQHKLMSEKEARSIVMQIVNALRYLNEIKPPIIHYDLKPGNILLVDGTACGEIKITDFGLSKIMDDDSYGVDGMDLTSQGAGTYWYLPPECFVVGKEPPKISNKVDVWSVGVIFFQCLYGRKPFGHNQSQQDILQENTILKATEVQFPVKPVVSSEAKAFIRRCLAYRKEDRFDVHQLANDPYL
Chain of PCTK1A (Q00536 163-478): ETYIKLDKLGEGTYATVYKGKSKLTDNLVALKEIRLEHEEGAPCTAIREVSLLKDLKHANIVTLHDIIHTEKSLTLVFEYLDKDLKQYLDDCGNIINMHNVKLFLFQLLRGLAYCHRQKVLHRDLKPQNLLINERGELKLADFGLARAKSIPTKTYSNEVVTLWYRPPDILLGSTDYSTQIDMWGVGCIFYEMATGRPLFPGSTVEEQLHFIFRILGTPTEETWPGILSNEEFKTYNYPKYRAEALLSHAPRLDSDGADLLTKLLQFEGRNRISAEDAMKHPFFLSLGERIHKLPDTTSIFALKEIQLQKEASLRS
Chain of PKMYT1A (Q99640 75-362): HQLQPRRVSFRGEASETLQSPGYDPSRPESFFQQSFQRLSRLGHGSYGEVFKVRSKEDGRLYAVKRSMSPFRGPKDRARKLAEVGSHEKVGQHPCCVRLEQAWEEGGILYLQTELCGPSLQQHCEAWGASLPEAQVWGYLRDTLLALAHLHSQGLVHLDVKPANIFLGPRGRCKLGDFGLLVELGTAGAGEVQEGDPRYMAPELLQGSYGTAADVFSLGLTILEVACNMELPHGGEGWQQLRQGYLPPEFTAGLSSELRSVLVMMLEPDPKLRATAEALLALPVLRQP
Chain of FGFR3A (P22607 23-806): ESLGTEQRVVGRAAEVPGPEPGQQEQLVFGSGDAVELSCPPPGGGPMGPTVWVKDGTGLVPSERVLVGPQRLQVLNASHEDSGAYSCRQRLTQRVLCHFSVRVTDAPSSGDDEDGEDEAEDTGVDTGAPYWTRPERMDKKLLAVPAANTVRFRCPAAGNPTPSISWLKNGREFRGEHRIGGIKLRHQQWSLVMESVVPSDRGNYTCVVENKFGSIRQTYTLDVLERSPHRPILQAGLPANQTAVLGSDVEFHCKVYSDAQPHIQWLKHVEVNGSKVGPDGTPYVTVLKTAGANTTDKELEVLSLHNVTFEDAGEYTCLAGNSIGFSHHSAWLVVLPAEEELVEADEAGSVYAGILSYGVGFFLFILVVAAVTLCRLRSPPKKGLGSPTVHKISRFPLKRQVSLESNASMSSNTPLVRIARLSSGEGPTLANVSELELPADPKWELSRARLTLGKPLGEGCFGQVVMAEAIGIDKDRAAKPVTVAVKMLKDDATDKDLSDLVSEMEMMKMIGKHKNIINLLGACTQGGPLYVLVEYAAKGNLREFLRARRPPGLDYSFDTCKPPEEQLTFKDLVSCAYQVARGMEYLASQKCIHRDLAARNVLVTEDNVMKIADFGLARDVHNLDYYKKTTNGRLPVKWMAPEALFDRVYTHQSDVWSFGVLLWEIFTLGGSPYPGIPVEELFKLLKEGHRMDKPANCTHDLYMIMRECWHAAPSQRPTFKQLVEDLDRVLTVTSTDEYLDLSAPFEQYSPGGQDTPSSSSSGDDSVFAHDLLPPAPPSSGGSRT
Chain of ULK1A (O75385 1-283): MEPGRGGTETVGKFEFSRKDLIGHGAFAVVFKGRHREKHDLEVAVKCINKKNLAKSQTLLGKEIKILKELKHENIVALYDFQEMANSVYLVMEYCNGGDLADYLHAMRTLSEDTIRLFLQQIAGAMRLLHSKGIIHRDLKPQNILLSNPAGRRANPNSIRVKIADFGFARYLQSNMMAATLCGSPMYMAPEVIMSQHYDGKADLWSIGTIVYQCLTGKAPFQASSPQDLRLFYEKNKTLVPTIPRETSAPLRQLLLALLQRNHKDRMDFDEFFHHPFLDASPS
Chain of DAPK1A (P53355 1-285): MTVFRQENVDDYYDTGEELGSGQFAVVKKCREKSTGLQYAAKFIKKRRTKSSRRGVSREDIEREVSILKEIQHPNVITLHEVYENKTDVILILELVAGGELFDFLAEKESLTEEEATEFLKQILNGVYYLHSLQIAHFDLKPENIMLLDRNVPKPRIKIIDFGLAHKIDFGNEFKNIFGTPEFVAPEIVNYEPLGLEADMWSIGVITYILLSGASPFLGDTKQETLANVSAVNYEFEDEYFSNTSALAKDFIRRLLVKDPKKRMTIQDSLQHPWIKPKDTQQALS

CN1C(=O)[C@@H](N2CCc3c(nn(Cc4ccccc4)c3C(N)=O)C2=O)COc2cc(Cl)ccc21 [Compound 10, (S)-2-benzyl-6-(8-chloro-5-methyl-4-oxo-2,3,4,5-tetrahydrobenzo[b][1,4]oxazepin-3-yl)-7-oxo-4,5,6,7-tetrahydro-2H-pyrazolo[3,4-c]pyridine-3-carboxamide]
ΔTm at 10 µM (AAK1A): 0.1 °C | ΔTm at 10 µM (ABL1A): -0.1 °C | ΔTm at 10 µM (AURKBA): 0.2 °C | ΔTm at 10 µM (BMP2KA): 0.3 °C | ΔTm at 10 µM (BRAFA): 0.1 °C | ΔTm at 10 µM (CAMK1DA): -0.2 °C | ΔTm at 10 µM (CAMK2BA): 0.1 °C | ΔTm at 10 µM (CSNK1DA): 0.5 °C | ΔTm at 10 µM (DAPK1A): 0.1 °C | ΔTm at 10 µM (EPHA2A): 0 °C | ΔTm at 10 µM (EPHA4A): 0.2 °C | ΔTm at 10 µM (EPHA7A): -0.1 °C | ΔTm at 10 µM (FECH): -0.6 °C | ΔTm at 10 µM (FGFR3A): 0.1 °C | ΔTm at 10 µM (GSK3BB): 0.1 °C | ΔTm at 10 µM (MAP3K5A): 0 °C | ΔTm at 10 µM (MAPK10A): 0 °C | ΔTm at 10 µM (MAPK13A): -0.1 °C | ΔTm at 10 µM (MAPK14A): 0.1 °C | ΔTm at 10 µM (MAPK1A): 0.1 °C | ΔTm at 10 µM (MERTKA): 0.1 °C | ΔTm at 10 µM (MST3A): -0.3 °C | ΔTm at 10 µM (NEK2): 1.3 °C | ΔTm at 10 µM (NEK7A): 0 °C | ΔTm at 10 µM (NQO2A): 0.6 °C | ΔTm at 10 µM (OSR1A): 0.4 °C | ΔTm at 10 µM (PCTK1A): 0.2 °C | ΔTm at 10 µM (PHKG2A): 0 °C | ΔTm at 10 µM (PKMYT1A): -0.1 °C | ΔTM (RPS6KA5A): -0.1 K | ΔTm at 10 µM (SRCA): 0.1 °C | ΔTm at 10 µM (STK10A): 0.4 °C | ΔTm at 10 µM (STK3A): 0.2 °C | ΔTm at 10 µM (STK4A): -0.5 °C | ΔTm at 10 µM (STK6A): 0.1 °C | ΔTm at 10 µM (TIF1A): 0.2 °C | ΔTm at 10 µM (TLK1A): 0 °C | ΔTm at 10 µM (TTKA): -0.3 °C | ΔTm at 10 µM (ULK1A): 0.1 °C | ΔTm at 10 µM (VRK1A): -0.2 °C | ΔTm at 10 µM (WNK1A): 0.4 °C

Source: PMC12090182, “Repurposing of the RIPK1-Selective Benzo[1,4]oxazepin-4-one Scaffold for the Development of a Type III LIMK1/2 Inhibitor” (ACS Chemical Biology, 2025)
